Reference: publication PMC10247784, “Physiological activation of human and mouse bitter taste receptors by bile acids” (Communications Biology, 2023)
Values joined by “and” are separate entries in the source; they are usually repeats but may differ in a detail not shown here. Identical values can stand only once.

Target: T1, human TAS2R1 (Homo sapiens, UniProt Q9NYW7)
T1 construct: expressed in transfected cells; host or cells: HEK293T-Gα16gust44
T1 sequence (Q9NYW7 1-299): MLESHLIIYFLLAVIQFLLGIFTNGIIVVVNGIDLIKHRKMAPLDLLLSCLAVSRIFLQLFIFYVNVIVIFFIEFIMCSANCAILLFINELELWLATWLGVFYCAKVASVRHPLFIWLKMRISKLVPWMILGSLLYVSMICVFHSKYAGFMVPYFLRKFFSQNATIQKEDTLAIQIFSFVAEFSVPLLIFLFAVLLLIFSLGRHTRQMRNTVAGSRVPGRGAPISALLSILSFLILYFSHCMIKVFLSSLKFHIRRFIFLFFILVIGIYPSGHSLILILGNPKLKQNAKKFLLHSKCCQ
Experiment: Calcium imaging assay (FLIPR), HEK293T-Gα16gust44 cells transfected with human TAS2R1
Type: cell-based
Experimental: This set of bile acids was chosen because of their commercial availability in high purities, their diversity within the class of bile acids and their previous detection and quantitation in human blood. Stock solutions were prepared in DMSO.
As basal growth medium for the HEK293T-Gα16gust44 cell line[17],[59] served Dulbecco’s modified eagle medium (DMEM) (Thermo Fisher Scientific, Darmstadt, Germany) supplemented with 10 % fetal bovine serum (Sigma-Aldrich, Steinheim, Germany), 2 mM L-glutamine (Sigma-Aldrich, Steinheim, Germany), 100 units/ml penicillin (Sigma Aldrich, Steinheim, Germany) and 100 µg/ml streptomycin (Sigma Aldrich, Steinheim, Germany). Growth conditions were 37 °C, 5 % CO2 and saturated air-humidity[60].
HEK293T-Gα16gust44 cells were seeded on poly-D-lysine (10 µg/ml) coated 96-well plates to reach a confluence of 40-60 % the next day. For transient transfection 150 ng of plasmid DNA containing the receptor of interest and 0.3 µl lipofectamine 2000 (Thermo Fisher Scientific, Darmstadt, Germany) per well were used and transfection took place according to the manual of lipofectamine 2000. […] The empty vector DNA (mock) was transfected as negative control[14],[41].
Cells were loaded using the calcium-sensitive fluorescent dye Fluo-4-AM (Abcam, Cambridge, Great Britain) in the presence of 2.5 mM probenecid (Sigma-Aldrich, Steinheim, Germany) the day after transfection[13],[41]. 1 h after loading, cells were washed with C1 buffer using a BioTek Cell Washer, incubated in the dark for half an hour and washed again. For automated agonist application and measurement of fluorescence changes, a FLIPR^TETRA device (Molecular Devices, San José, United States) was used. Viability of cells was tested by application of 100 nM Somatostatin 14 (Bachem, Bubendorf, Switzerland)[42].
Measured data were negative control corrected by subtracting the signal of the mock-transfected cells and exported to Microsoft Excel using the FLIPR software ScreenWorks 4.2. In Microsoft Excel software, standardization of maximum fluorescence intensities to the basal fluorescence and normalization to the buffer-only control was done to calculate the relative fluorescence changes (ΔF/F).
Initial screening experiments performed in duplicate wells were confirmed by at least one replication and representative traces were selected for display. All dose-response relationships were determined by three independent experiments (biological replicates) performed in duplicates (technical replicates). Threshold concentrations, defined as lowest substance concentrations leading to statistically significant elevated fluorescence changes in receptor-transfected cells compared with empty vector-transfected cells, were determined using SigmaPlot with Student’s t-test to evaluate statistical significance (p < 0.01).

C[C@H](CCC(=O)O)[C@H]1CC[C@H]2[C@@H]3[C@H](O)C[C@@H]4C[C@H](O)CC[C@]4(C)[C@H]3CC[C@]12C [Chenodeoxycholic Acid, chenodeoxycholic acid]
Efficacy = maximal amplitude (ΔF/F) (TAS2R1, bile acids, mean): 0.1118
Efficacy (maximal amplitude ΔF/F), individual data points (TAS2R1, bile acids, single replicates, listed as CDCA): 0.09822 and 0.1595 and 0.07759
RLU (Time 0 s): 0 RLU
RLU (Time 2.015 s): 19.0362 RLU
RLU (Time 4.015 s): 1.217 RLU
RLU (Time 6.015 s): -17.015 RLU
RLU (Time 8.015 s): -2.669 RLU
RLU (Time 12.015 s): 20.3444 RLU
RLU (Time 14.015 s): 20.4897 RLU
RLU (Time 16.015 s): 20.4897 RLU
RLU (Time 18.015 s): 0.1896 RLU
RLU (Time 18.796 s): 35.4441 RLU
RLU (Time 20.796 s): 34.972 RLU
RLU (Time 22.796 s): 66.6032 RLU
RLU (Time 24.796 s): 169.759 RLU
RLU (Time 26.796 s): 276.637 RLU
RLU (Time 28.796 s): 430.728 RLU
RLU (Time 30.796 s): 521.85 RLU
RLU (Time 32.796 s): 667.246 RLU
RLU (Time 34.796 s): 744.49 RLU
RLU (Time 36.796 s): 777.672 RLU
RLU (Time 38.796 s): 835.786 RLU
RLU (Time 40.796 s): 853.586 RLU
RLU (Time 42.796 s): 876.11 RLU
RLU (Time 44.796 s): 905.241 RLU
RLU (Time 46.796 s): 902.191 RLU
RLU (Time 48.796 s): 919.121 RLU
RLU (Time 50.796 s): 927.172 RLU
RLU (Time 52.796 s): 893.665 RLU
RLU (Time 54.796 s): 936.083 RLU
RLU (Time 56.796 s): 944.124 RLU
RLU (Time 58.796 s): 915.714 RLU
RLU (Time 60.796 s): 876.524 RLU
RLU (Time 62.796 s): 877.876 RLU
RLU (Time 64.796 s): 906.896 RLU
RLU (Time 66.796 s): 861.974 RLU
RLU (Time 68.796 s): 872.092 RLU
RLU (Time 70.796 s): 871.317 RLU
RLU (Time 72.796 s): 854.469 RLU
RLU (Time 74.796 s): 844.188 RLU
RLU (Time 76.796 s): 841.862 RLU
RLU (Time 78.796 s): 815.084 RLU
RLU (Time 80.796 s): 833.544 RLU
RLU (Time 82.796 s): 792.555 RLU
RLU (Time 84.796 s): 783.457 RLU
RLU (Time 86.796 s): 757.585 RLU
RLU (Time 88.796 s): 790.002 RLU
RLU (Time 90.796 s): 748.006 RLU
RLU (Time 92.796 s): 752.186 RLU
RLU (Time 94.796 s): 735.827 RLU
RLU (Time 96.796 s): 731.254 RLU
RLU (Time 98.796 s): 711.692 RLU
RLU (Time 100.796 s): 698.367 RLU
RLU (Time 102.796 s): 713.847 RLU
RLU (Time 104.796 s): 673.465 RLU
RLU (Time 106.796 s): 693.426 RLU
RLU (Time 108.796 s): 681.535 RLU
RLU (Time 110.796 s): 647.896 RLU
RLU (Time 112.796 s): 643.349 RLU
RLU (Time 114.796 s): 607.76 RLU
RLU (Time 116.796 s): 609.573 RLU
RLU (Time 118.796 s): 614.947 RLU
RLU (Time 120.796 s): 582.22 RLU
RLU (Time 122.796 s): 589.185 RLU
RLU (Time 124.796 s): 584.345 RLU
RLU (Time 126.796 s): 601.503 RLU
RLU (Time 128.796 s): 551.854 RLU
RLU (Time 130.796 s): 581.558 RLU
RLU (Time 132.796 s): 570.089 RLU
RLU (Time 134.796 s): 541.966 RLU
RLU (Time 136.796 s): 537.391 RLU
RLU (Time 137.562 s): 528.381 RLU
RLU (Time 143.562 s): 528.401 RLU
RLU (Time 149.562 s): 492.752 RLU
RLU (Time 155.562 s): 464.959 RLU
RLU (Time 161.562 s): 428.355 RLU
RLU (Time 167.562 s): 423.067 RLU
RLU (Time 173.562 s): 376.724 RLU
RLU (Time 179.562 s): 392.276 RLU
RLU (Time 185.562 s): 341.893 RLU
RLU (Time 191.562 s): 346.95 RLU
RLU (Time 197.562 s): 320.481 RLU
RLU (Time 203.562 s): 327.574 RLU
RLU (Time 209.562 s): 318.301 RLU
RLU (Time 215.562 s): 277.825 RLU
RLU (Time 221.562 s): 283.821 RLU
RLU (Time 227.562 s): 172.224 RLU
RLU (Time 233.562 s): 155.786 RLU
RLU (Time 239.562 s): 141.722 RLU
RLU (Time 245.562 s): 124.55 RLU
RLU (Time 293.562 s): 126.733 RLU
RLU (Time 299.562 s): 134.725 RLU
RLU (calcium trace, sheet TAS2R1, Time 305.562 s): 138.341 RLU
RLU (calcium trace, sheet TAS2R1, Time 311.562 s): 138.414 RLU
RLU (calcium trace, sheet TAS2R1, Time 317.562 s): 144.044 RLU
RLU (calcium trace, sheet TAS2R1, Time 323.562 s): 138.244 RLU
RLU (calcium trace, sheet TAS2R1, Time 329.562 s): 121.3 RLU
RLU (calcium trace, sheet TAS2R1, Time 335.562 s): 104.786 RLU
RLU (calcium trace, sheet TAS2R1, Time 341.562 s): 124.793 RLU
RLU (calcium trace, sheet TAS2R1, Time 347.562 s): 124.739 RLU
RLU (calcium trace, sheet TAS2R1, Time 353.562 s): 136.304 RLU
RLU (calcium trace, sheet TAS2R1, Time 359.562 s): 146.172 RLU
Δ F/F (conc. 0,01 mM, TAS2R1): 0.1118
Δ F/F (conc. 0,00003 mM, TAS2R1): -0.002448
Δ F/F (conc. 0,0001 mM, TAS2R1): -0.01316
Δ F/F (conc. 0,0003 mM, TAS2R1): -0.003718
Δ F/F (conc. 0,001 mM, TAS2R1): 0.01001
Δ F/F (conc. 0,003 mM, TAS2R1): 0.03254
Activation threshold concentration TAS2R1 (lowest concentration with significantly increased fluorescence vs empty vector (p < 0.01)): 3 µM and 3.00 µM
Receptor response TAS2R1 (screening): activated
